Experimental data published in US20080206198A1, “Compounds and methods for pharmico-gene therapy of epithelial sodium channel associated disorders” (priority 2003, published 2008).

Tested on: HeLa cells
Test: AAV2 FLAG-Luc transduction of HeLa cells (luciferase screen)
Assay type: cell-based, human
Settings: for increase in transduction efficiency: at the doses tested, MOI 100, 2 hours infection, harvest 48 hours; for order of potency among anthracyclines: 0.6, 3 and 6 μg/mL
From the text: A. To screen for agents that enhance rAAV transduction, any number of cells can be used. A range of concentrations of the agent to be tested can be determined based on, for instance desirable profiles of the agent, desirable toxicity profiles of the agent and/or concentration of the agents employed in vivo. The usefulness of the cell type chosen for the screen can be confirmed by testing compounds, e.g., proteasome inhibitors such as LLnL and ZLL which are known to increase rAAV transduction. For example, a AAV2 FLAG-Luc vector was employed to transduce HeLa, ferret fibroblasts, IB3 and Huh (liver) cells in the presence or absence of the proteasome inhibitor MG132. MG132 was confirmed to enhance AAV transduction in all cell types tested: HeLa cell transduction was enhanced about 500-fold at 80 μM, and 200-fold at 40 μM, MG132; ferret fibroblast cell transduction was enhanced about 200-fold at 20 μM, and 17-fold at 4 μM, MG132; IB3-1 cell transduction was enhanced about 30 to 70-fold at 20 to 80 μM MG132; and Huh-7 cell transduction was enhanced about 15-fold at 20 to 80 μM MG132. There was no difference in rAAV transduction efficiency in HeLa cells when either DMSO or ETOH was used as a vehicle for MG132. B. HeLa cells were selected to screen for additional agents that enhance rAAV transduction, although any cell strain or line; or primary cells, may be employed. […] The range of concentrations of the agents to be tested were selected based on solubility profiles, toxicity profiles and/or concentrations previously employed in vivo.
HeLa cells were infected for 2 hours with an MOI of 100 rAAV in the presence of agents, e.g., ritonavir (Norvir) (1, 10 and 100 μM), cyclosporin A (2.5, 25 and 250 μg/ml), epoxomicin (1, 10 and 50 μM), alcacinomycin A (5, 50 or 500 μM), chymostatin (1, 10 and 100 μM), bestatin (1, 10 and 100 μM), doxorubicin (adriamycin) (0.1, 1 and 10 μM), camptothecin (camptosar) (1, 10 and 100 μM), eicosapentanoic acid (1, 10 and 100 μM), tannic acid (2, 20, 200 and 2000 μM), simvastatin, prodrug (2, 20 and 200 μM), cisplatin (0.2, 2 and 20 μg/mL), and chloroquine (4, 40 and 400 μM). Forty-eight hours after infection, cells were harvested for analysis. rAAV transduction was measured by removing the media from the cell cultures, adding 100 μL reporter lysis buffer (RLB) and freezing. The supernatant was thawed and transferred to microfuge tubes, freeze thawed an additional 2 times, clarified by centrifugation for 10 minutes and then analyzed for reporter gene expression on the lumometer. Protein was determined by Bradford analysis and results were expressed as relative light units per mg protein (RLU/mg).
Based on results with doxorubicin, a small number of FDA approved anthracyclines were tested for their relative in vitro and in vivo activities on AAV transduction. HeLa cells were infected with 100 ppc AAV2FLAG-Luc for 2 hours in the presence of different anthracyclines, e.g., doxorubicin, daunarubicin (Cerubidine), epirubicin (Ellence™), and idarubicin (Idamycin®), and cells harvested 48 hours later. The anthracyclines were pharmaceutical grade, and prepared according to the manufacturer's instructions. Prior to use, the agents were diluted in sterile water to an equal mass, e.g., 0.6 μg/mL, 3 μg/mL and 6 μg/mL. For example, 3 μg/mL idamycin increased luciferase expression by over 5000-fold while doxorubin increased luciferase expression by 58-fold. Generally, the potency was as follows: idarubicin>daunarubicin>epirubicin>doxorubicin.

Compound: N.N.[Cl][Pt][Cl] [cisplatin]
- increase in transduction efficiency: 16 fold

Compound: COc1cccc2c1C(=O)c1c(O)c3c(c(O)c1C2=O)C[C@@](O)(C(C)=O)C[C@@H]3O[C@H]1C[C@H](N)[C@H](O)[C@H](C)O1 [daunarubicin]
- order of potency among anthracyclines: idarubicin>daunarubicin>epirubicin>doxorubicin

Compound: COc1cccc2c1C(=O)c1c(O)c3c(c(O)c1C2=O)C[C@@](O)(C(=O)CO)C[C@@H]3O[C@H]1C[C@H](N)[C@@H](O)[C@H](C)O1 [epirubicin]
- order of potency among anthracyclines: idarubicin>daunarubicin>epirubicin>doxorubicin

Compound: CC[C@H](C)[C@H](NC(=O)[C@H]([C@@H](C)CC)N(C)C(C)=O)C(=O)N[C@H](C(=O)N[C@@H](CC(C)C)C(=O)[C@@]1(C)CO1)[C@@H](C)O [epoxomicin]
- increase in transduction efficiency: ≤ 120 fold
- dose dependence of transduction (dose ranges tested): dose-dependent increase in transduction

Compound: CC[C@H](C)C(=O)O[C@H]1C[C@@H](C)C=C2C=C[C@H](C)[C@H](CC[C@@H]3C[C@@H](O)CC(=O)O3)[C@H]21 [lovastatin]
- result in cell line screening: negative results

Compound: CCC(C)(C)C(=O)O[C@H]1C[C@@H](C)C=C2C=C[C@H](C)[C@H](CC[C@@H]3C[C@@H](O)CC(=O)O3)[C@H]21 [simvastatin]
- increase in transduction efficiency: 4 fold

Compound: O=C(OC[C@H]1O[C@@H](OC(=O)c2cc(O)c(O)c(OC(=O)c3cc(O)c(O)c(O)c3)c2)[C@H](OC(=O)c2cc(O)c(O)c(OC(=O)c3cc(O)c(O)c(O)c3)c2)[C@@H](OC(=O)c2cc(O)c(O)c(OC(=O)c3cc(O)c(O)c(O)c3)c2)[C@@H]1OC(=O)c1cc(O)c(O)c(OC(=O)c2cc(O)c(O)c(O)c2)c1)c1cc(O)c(O)c(OC(=O)c2cc(O)c(O)c(O)c2)c1 [tannic acid]
- increase in transduction efficiency: 17 fold
